From ChEMBL document CHEMBL1201862, “PubChem BioAssay data set” (2004) come the findings set out here.

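Tested at 5 concentrations; 48 h exposure; 96-well plates; endpoints linearly interpolated, else capped at highest concentration. The concentration for 50% growth inhibition is given as GI50.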 Active and inactive are the calls of the source. Cut-off read from the data, not from the text of the source: active = GI50 up to about 1.1 µM and inactive = higher.

Test systems include A498; A549; ACHN; CCRF-CEM; HCC 2998; HCT-116; Hs-578T; MOLT-4; NCI-H460; NCI/ADR-RES; OVCAR-3; OVCAR-8; SF-295; SK-MEL-2; SN12C; SNB-19; SNB-75; TK-10; UACC-62.
Common to all, as to assay: NCI tumour cell line growth inhibition, 48 h

Consider `CCCc1c(Cl)nc(Cl)nc1Cl`, for which the GI50 is 19.5 µM (inactive) in the experiment with A498; 4.63 µM (inactive) in the experiment with A549; 1.64 µM (inactive) with ACHN; 0.0265 µM (active) with CCRF-CEM; 5.55 µM (inactive) in the experiment with HCC 2998; 0.546 µM (active) with HCT-116. In addition, the GI50 was 3.52 µM (inactive) in the experiment on Hs-578T; 0.0429 µM (active) in the experiment on MOLT-4; 1.2 µM (inactive) with NCI-H460; 0.845 µM (active) in the experiment with NCI/ADR-RES; 1.01 µM (active) in the experiment on OVCAR-3; 1.05 µM (active) in the experiment on OVCAR-8. Moreover, the GI50 was 4.16 µM (inactive) with SF-295; 0.352 µM (active) in the experiment on SK-MEL-2; 0.467 µM (active) with SN12C; 4.71 µM (inactive) with SNB-19; 9.18 µM (inactive) in the experiment with SNB-75; 3.44 µM (inactive) with TK-10. In addition, the GI50 in the experiment on UACC-62 was 0.822 µM (active).
For `O=[N+]([O-])C(C(Cl)=C(Cl)Cl)=C(n1cncn1)n1cncn1`, the GI50 in the experiment on A498 is > 100 µM (inactive); in the experiment with A549, > 22.1 µM (inactive); with ACHN it was 19.3 µM (inactive); with CCRF-CEM, 3.37 µM (inactive); in the experiment with HCC 2998 it was > 58.3 µM (inactive); in the experiment on HCT-116, 16.1 µM (inactive). Further, the GI50 was 27 µM (inactive) in the experiment on Hs-578T; > 33 µM (inactive) in the experiment with MOLT-4; > 75.5 µM (inactive) with NCI-H460; 25.1 µM (inactive) with NCI/ADR-RES; 18.2 µM (inactive) in the experiment with OVCAR-3; 19.2 µM (inactive) in the experiment on OVCAR-8. In addition, the GI50 in the experiment on SF-295 is > 86.7 µM (inactive); in the experiment with SK-MEL-2 it was > 100 µM (inactive); in the experiment with SN12C, 12.4 µM (inactive); in the experiment with SNB-19, > 100 µM (inactive); with SNB-75, > 44.2 µM (inactive); in the experiment with TK-10, 25.7 µM (inactive). Further, the GI50 in the experiment on UACC-62 was 39.9 µM (inactive).
For `Cc1cc2[nH]c(=NS(=O)(=O)c3cc(C)c(Cl)cc3S)[nH]c2cc1C`, the GI50 with A498 is > 100 µM (inactive); in the experiment with A549 it was 35.7 µM (inactive); with ACHN, 73.8 µM (inactive); in the experiment on CCRF-CEM, 21.4 µM (inactive); in the experiment with HCC 2998, > 100 µM (inactive); with HCT-116, 51.4 µM (inactive). Also, the GI50 in the experiment on Hs-578T is > 100 µM (inactive); in the experiment on MOLT-4, 21.5 µM (inactive); with NCI-H460 it was 16.9 µM (inactive); with NCI/ADR-RES it was 91.4 µM (inactive); in the experiment with OVCAR-3, > 100 µM (inactive); in the experiment with OVCAR-8, 77.3 µM (inactive). Further, the GI50 with SF-295 was 53.8 µM (inactive); with SK-MEL-2 it was > 100 µM (inactive); with SN12C, > 100 µM (inactive); in the experiment on SNB-19, 56.6 µM (inactive); in the experiment with SNB-75 it was > 100 µM (inactive); in the experiment on TK-10, > 100 µM (inactive). Besides, the GI50 in the experiment on UACC-62 is > 100 µM (inactive).
As for `O=C1c2ccccc2CC12Cc1ccccc1C2`, the GI50 in the experiment with A498 is > 100 µM (inactive); in the experiment with A549 it was 37.3 µM (inactive); in the experiment on ACHN it was 63.1 µM (inactive); with CCRF-CEM, 48.3 µM (inactive); with HCC 2998, 18.5 µM (inactive); with HCT-116, 44.1 µM (inactive). In addition, the GI50 in the experiment with Hs-578T is 52.2 µM (inactive); in the experiment on MOLT-4 it was 35.7 µM (inactive); in the experiment on NCI-H460, 57.9 µM (inactive); with NCI/ADR-RES it was 25.2 µM (inactive); in the experiment on OVCAR-3, 44 µM (inactive); in the experiment on OVCAR-8, 80.4 µM (inactive). The GI50 with SF-295 was > 100 µM (inactive); in the experiment on SK-MEL-2, 45.3 µM (inactive); in the experiment with SN12C it was 69.3 µM (inactive); in the experiment with SNB-19, > 100 µM (inactive); in the experiment with SNB-75 it was 18.2 µM (inactive); in the experiment with TK-10 it was 21.9 µM (inactive). Besides, the GI50 in the experiment with UACC-62 was > 100 µM (inactive).
As for `CN/N=C(\C)C(CN(C)C)C(c1ccccc1)c1c(O)c2ccccc2oc1=O` (stereo not given), the GI50 is > 100 µM (inactive) with A498; > 100 µM (inactive) with A549; > 100 µM (inactive) with ACHN; 73.6 µM (inactive) in the experiment with CCRF-CEM; > 100 µM (inactive) in the experiment on HCC 2998; > 100 µM (inactive) in the experiment on HCT-116. Moreover, the GI50 was > 100 µM (inactive) in the experiment on Hs-578T; 75.5 µM (inactive) with MOLT-4; > 100 µM (inactive) in the experiment with NCI-H460; > 100 µM (inactive) in the experiment with NCI/ADR-RES; 49.5 µM (inactive) with OVCAR-3; > 100 µM (inactive) in the experiment on OVCAR-8. For the same molecule, the GI50 in the experiment on SF-295, in the experiment on SK-MEL-2, in the experiment on SN12C, in the experiment on SNB-19, in the experiment on SNB-75 and in the experiment with TK-10 was > 100 µM (inactive) in each case. In the experiment with UACC-62, the GI50 was 31.3 µM (inactive).
Regarding `COc1c(OC)c(OC)c(C(=O)/C=C/c2ccccc2)c(OC)c1OC`, the GI50 in the experiment with A498 was 4.28 µM (inactive); in the experiment with A549, 12.5 µM (inactive); with ACHN, 11.7 µM (inactive); in the experiment on CCRF-CEM it was 1.96 µM (inactive); with HCC 2998, 14.7 µM (inactive); in the experiment with HCT-116 it was 6.11 µM (inactive). For the same molecule, the GI50 was 4.32 µM (inactive) with Hs-578T; 8.83 µM (inactive) with MOLT-4; 6.46 µM (inactive) in the experiment with NCI-H460; 11.5 µM (inactive) in the experiment on NCI/ADR-RES; 9.29 µM (inactive) with OVCAR-3; 10.3 µM (inactive) in the experiment with OVCAR-8. The GI50 with SF-295 was 12.4 µM (inactive); in the experiment with SK-MEL-2, 12.6 µM (inactive); in the experiment with SN12C it was 10.6 µM (inactive); with SNB-19, 12.4 µM (inactive); in the experiment on SNB-75, 8.91 µM (inactive); in the experiment with TK-10 it was 12.8 µM (inactive). For the same molecule, the GI50 in the experiment with UACC-62 is 6.87 µM (inactive).
Take `CNCCCNC1(c2cc3ccccc3s2)CCCCC1`: the GI50 in the experiment on A498 is 3.37 µM (inactive); in the experiment with A549, 7 µM (inactive); with ACHN, 14 µM (inactive); in the experiment with CCRF-CEM it was 1.66 µM (inactive); in the experiment with HCC 2998 it was 1.29 µM (inactive); in the experiment on HCT-116, 3.56 µM (inactive). Further, the GI50 with Hs-578T was 13.2 µM (inactive); in the experiment with MOLT-4, 1.94 µM (inactive); in the experiment on NCI-H460, 2.86 µM (inactive); in the experiment with NCI/ADR-RES, 14.9 µM (inactive); with OVCAR-3, 12.5 µM (inactive); with OVCAR-8, 14.5 µM (inactive). Besides, the GI50 with SF-295 is 14.2 µM (inactive); in the experiment on SK-MEL-2, 4.59 µM (inactive); in the experiment with SN12C it was 5.52 µM (inactive); in the experiment with SNB-19, 12.1 µM (inactive); with SNB-75 it was 6.17 µM (inactive); in the experiment with TK-10 it was 6.31 µM (inactive). The GI50 with UACC-62 was 1.94 µM (inactive).
For `COc1ccc(OC2OC(COC(c3ccccc3)(c3ccc(OC)cc3)c3ccc(OC)cc3)C(O)C(O)C2O)cc1` (stereo not given), the GI50 in the experiment with A498 is 11.7 µM (inactive); with A549 it was 2.99 µM (inactive); with ACHN it was 4 µM (inactive); in the experiment on CCRF-CEM, 2.08 µM (inactive); with HCC 2998, 3.44 µM (inactive); in the experiment with HCT-116, 3.26 µM (inactive). In addition, the GI50 was 3.96 µM (inactive) in the experiment with Hs-578T; 1.33 µM (inactive) in the experiment with MOLT-4; 2.99 µM (inactive) in the experiment on NCI-H460; 3.48 µM (inactive) in the experiment on NCI/ADR-RES; 4.21 µM (inactive) in the experiment with OVCAR-3; 5.24 µM (inactive) in the experiment with OVCAR-8. Also, the GI50 with SF-295 was 4.28 µM (inactive); with SK-MEL-2, 2.61 µM (inactive); in the experiment with SN12C, 2.51 µM (inactive); with SNB-19, 9.66 µM (inactive); in the experiment on SNB-75 it was 3.32 µM (inactive); in the experiment on TK-10, 5.33 µM (inactive). In the experiment with UACC-62, the GI50 was 3.43 µM (inactive).
Consider `CC(C)(C)CC(C)(C)NC(=S)NO`, for which the GI50 in the experiment with A498, in the experiment on A549, in the experiment with ACHN, in the experiment on CCRF-CEM, in the experiment with HCC 2998 and in the experiment on HCT-116 was > 100 µM (inactive) in each case. In addition, the GI50 in the experiment on Hs-578T, in the experiment with MOLT-4, in the experiment with NCI-H460, in the experiment with NCI/ADR-RES, in the experiment on OVCAR-3 and with OVCAR-8 was > 100 µM (inactive) each time. For the same molecule, the GI50 in the experiment on SF-295, with SK-MEL-2, with SN12C, in the experiment on SNB-19, in the experiment with SNB-75 and in the experiment on TK-10 was > 100 µM (inactive) in each case. The GI50 in the experiment on UACC-62 is > 100 µM (inactive).
Take `COc1cc2c(/C=C3/C(=O)N(c4ccccc4)c4ccccc43)c(Cl)[nH]c2cc1C`: the GI50 in the experiment with A498 is 6.46 µM (inactive); in the experiment with A549, 3.41 µM (inactive); in the experiment with ACHN it was 3.44 µM (inactive); in the experiment on CCRF-CEM, 1.71 µM (inactive); with HCC 2998, 2.37 µM (inactive); in the experiment with HCT-116, 2.95 µM (inactive). Also, the GI50 in the experiment on Hs-578T is 4.56 µM (inactive); in the experiment on MOLT-4 it was 2.56 µM (inactive); with NCI-H460 it was 2.73 µM (inactive); in the experiment with NCI/ADR-RES, 2.11 µM (inactive); in the experiment with OVCAR-3, 1.99 µM (inactive); in the experiment with OVCAR-8 it was 2.12 µM (inactive). Besides, the GI50 in the experiment with SF-295 is 2.85 µM (inactive); in the experiment with SK-MEL-2 it was 2.72 µM (inactive); in the experiment with SN12C, 2.31 µM (inactive); in the experiment with SNB-19, 4.55 µM (inactive); in the experiment on SNB-75, 3.71 µM (inactive); in the experiment on TK-10 it was 3.19 µM (inactive). Moreover, in the experiment with UACC-62, the GI50 is 2.93 µM (inactive).
